{"source": "paper PMC5564600", "about": "(Oncotarget, 2017)", "assay_in_all_cases": "biochemical", "format_in_all_cases": "binding", "key": {"panel of 442 kinases [1]": {"biological_target": "T1, panel of 442 kinases (Homo sapiens, UniProt Q13177)", "T1 construct": "purchased Ambit Biosciences (scanMAXX KINOMEscan)", "T1 sequence (Q13177 whole entry)": "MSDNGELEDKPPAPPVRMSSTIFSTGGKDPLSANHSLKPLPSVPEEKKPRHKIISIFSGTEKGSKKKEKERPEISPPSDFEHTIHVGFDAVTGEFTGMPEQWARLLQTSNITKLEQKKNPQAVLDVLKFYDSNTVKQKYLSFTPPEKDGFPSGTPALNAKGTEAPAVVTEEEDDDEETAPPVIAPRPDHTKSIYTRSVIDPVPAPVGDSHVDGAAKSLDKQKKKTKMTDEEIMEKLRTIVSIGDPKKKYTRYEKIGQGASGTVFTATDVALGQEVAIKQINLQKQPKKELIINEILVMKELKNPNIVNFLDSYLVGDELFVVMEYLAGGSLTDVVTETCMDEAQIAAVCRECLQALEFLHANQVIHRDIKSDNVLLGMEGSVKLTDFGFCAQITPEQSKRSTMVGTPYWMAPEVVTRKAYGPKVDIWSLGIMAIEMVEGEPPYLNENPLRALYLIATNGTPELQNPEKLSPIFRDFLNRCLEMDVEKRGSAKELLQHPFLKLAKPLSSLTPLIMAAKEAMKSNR", "conditions": "kinase PAK2; for remaining activity at 1 µM: read-out: % of control at 1 µM"}, "panel of 442 kinases [2]": {"biological_target": "T2, panel of 442 kinases (Homo sapiens, UniProt Q8NFD2)", "T2 construct": "purchased Ambit Biosciences (scanMAXX KINOMEscan)", "T2 sequence (Q8NFD2 1-765)": "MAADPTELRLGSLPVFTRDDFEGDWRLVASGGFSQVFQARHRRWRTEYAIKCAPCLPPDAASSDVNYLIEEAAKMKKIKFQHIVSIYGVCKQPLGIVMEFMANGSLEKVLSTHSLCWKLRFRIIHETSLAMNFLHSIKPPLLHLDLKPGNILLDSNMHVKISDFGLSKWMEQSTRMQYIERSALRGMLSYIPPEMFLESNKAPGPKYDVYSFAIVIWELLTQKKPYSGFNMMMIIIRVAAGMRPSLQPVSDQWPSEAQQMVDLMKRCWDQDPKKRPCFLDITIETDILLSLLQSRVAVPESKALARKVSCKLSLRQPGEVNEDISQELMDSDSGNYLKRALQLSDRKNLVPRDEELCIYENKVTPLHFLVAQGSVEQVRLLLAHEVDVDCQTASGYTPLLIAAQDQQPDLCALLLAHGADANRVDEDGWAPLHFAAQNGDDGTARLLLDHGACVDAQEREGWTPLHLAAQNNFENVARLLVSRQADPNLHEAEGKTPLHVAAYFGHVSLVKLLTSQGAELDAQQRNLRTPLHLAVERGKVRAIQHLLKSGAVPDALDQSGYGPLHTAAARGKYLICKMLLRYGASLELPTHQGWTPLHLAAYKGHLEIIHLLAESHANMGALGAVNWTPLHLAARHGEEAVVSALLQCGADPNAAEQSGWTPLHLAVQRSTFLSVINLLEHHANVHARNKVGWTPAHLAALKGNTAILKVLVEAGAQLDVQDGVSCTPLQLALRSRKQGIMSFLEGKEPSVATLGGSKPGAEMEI", "conditions": "ANKK1; for remaining activity at 1 µM: read-out: % of control at 1 µM"}, "panel of 442 kinases [3]": {"biological_target": "T3, panel of 442 kinases (Homo sapiens, UniProt Q9UHD2)", "T3 construct": "purchased Ambit Biosciences (scanMAXX KINOMEscan)", "T3 sequence (Q9UHD2 1-729)": "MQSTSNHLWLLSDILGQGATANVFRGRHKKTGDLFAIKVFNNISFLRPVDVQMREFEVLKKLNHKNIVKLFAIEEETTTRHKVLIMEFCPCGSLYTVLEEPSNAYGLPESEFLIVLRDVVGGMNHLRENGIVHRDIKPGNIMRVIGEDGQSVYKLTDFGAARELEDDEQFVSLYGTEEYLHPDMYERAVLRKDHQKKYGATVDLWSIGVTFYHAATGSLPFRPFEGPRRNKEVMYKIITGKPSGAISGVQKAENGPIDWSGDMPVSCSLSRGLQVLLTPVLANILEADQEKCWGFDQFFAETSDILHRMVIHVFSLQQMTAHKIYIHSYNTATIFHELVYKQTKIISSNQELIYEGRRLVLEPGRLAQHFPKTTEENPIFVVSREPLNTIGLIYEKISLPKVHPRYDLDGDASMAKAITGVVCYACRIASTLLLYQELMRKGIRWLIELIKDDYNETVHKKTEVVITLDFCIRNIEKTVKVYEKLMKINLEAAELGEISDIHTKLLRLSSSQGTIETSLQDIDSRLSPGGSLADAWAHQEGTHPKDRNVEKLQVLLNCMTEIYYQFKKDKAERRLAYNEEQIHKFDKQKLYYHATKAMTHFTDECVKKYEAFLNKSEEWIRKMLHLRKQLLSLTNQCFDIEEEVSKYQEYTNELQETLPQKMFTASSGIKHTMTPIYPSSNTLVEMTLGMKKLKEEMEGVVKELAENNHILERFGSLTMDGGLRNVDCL", "conditions": "kinase TBK1; for remaining activity at 1 µM: read-out: TBK1 (% of control at 1 µM)"}, "panel of 442 kinases [4]": {"biological_target": "T4, panel of 442 kinases (Homo sapiens, UniProt P17612)", "T4 construct": "purchased Ambit Biosciences (scanMAXX KINOMEscan)", "conditions": "kinase PKAC-alpha; for remaining activity at 1 µM: read-out: % of control at 1 µM"}, "panel of 442 kinases [5]": {"biological_target": "T5, panel of 442 kinases (Homo sapiens, UniProt P22455)", "T5 construct": "purchased Ambit Biosciences (scanMAXX KINOMEscan)", "T5 sequence (P22455 22-802)": "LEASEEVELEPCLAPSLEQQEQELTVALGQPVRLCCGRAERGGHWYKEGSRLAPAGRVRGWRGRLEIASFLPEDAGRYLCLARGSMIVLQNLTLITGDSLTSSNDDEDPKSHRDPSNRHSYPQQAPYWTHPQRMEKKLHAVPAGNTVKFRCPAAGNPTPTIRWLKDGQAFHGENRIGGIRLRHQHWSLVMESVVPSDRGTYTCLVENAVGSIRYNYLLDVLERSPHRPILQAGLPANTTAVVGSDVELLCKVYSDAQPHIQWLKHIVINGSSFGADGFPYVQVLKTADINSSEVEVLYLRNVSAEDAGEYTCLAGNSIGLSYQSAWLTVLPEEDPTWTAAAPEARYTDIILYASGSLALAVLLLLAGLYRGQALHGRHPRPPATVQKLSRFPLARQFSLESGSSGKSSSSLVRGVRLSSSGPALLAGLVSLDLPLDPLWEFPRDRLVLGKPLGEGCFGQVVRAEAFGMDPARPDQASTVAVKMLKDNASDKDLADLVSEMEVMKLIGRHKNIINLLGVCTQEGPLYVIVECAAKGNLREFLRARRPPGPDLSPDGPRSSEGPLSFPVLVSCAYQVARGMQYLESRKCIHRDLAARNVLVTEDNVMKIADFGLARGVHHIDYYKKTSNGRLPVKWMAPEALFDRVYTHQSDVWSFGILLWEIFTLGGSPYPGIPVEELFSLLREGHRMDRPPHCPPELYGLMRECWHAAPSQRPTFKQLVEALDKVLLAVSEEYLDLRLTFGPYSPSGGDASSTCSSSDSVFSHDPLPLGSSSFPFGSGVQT", "conditions": "FGFR4; for remaining activity at 1 µM: read-out: % of control at 1 µM"}, "panel of 442 kinases [6]": {"biological_target": "T6, panel of 442 kinases (Homo sapiens, UniProt Q9UKE5)", "T6 construct": "purchased Ambit Biosciences (scanMAXX KINOMEscan)", "T6 sequence (Q9UKE5 whole entry)": "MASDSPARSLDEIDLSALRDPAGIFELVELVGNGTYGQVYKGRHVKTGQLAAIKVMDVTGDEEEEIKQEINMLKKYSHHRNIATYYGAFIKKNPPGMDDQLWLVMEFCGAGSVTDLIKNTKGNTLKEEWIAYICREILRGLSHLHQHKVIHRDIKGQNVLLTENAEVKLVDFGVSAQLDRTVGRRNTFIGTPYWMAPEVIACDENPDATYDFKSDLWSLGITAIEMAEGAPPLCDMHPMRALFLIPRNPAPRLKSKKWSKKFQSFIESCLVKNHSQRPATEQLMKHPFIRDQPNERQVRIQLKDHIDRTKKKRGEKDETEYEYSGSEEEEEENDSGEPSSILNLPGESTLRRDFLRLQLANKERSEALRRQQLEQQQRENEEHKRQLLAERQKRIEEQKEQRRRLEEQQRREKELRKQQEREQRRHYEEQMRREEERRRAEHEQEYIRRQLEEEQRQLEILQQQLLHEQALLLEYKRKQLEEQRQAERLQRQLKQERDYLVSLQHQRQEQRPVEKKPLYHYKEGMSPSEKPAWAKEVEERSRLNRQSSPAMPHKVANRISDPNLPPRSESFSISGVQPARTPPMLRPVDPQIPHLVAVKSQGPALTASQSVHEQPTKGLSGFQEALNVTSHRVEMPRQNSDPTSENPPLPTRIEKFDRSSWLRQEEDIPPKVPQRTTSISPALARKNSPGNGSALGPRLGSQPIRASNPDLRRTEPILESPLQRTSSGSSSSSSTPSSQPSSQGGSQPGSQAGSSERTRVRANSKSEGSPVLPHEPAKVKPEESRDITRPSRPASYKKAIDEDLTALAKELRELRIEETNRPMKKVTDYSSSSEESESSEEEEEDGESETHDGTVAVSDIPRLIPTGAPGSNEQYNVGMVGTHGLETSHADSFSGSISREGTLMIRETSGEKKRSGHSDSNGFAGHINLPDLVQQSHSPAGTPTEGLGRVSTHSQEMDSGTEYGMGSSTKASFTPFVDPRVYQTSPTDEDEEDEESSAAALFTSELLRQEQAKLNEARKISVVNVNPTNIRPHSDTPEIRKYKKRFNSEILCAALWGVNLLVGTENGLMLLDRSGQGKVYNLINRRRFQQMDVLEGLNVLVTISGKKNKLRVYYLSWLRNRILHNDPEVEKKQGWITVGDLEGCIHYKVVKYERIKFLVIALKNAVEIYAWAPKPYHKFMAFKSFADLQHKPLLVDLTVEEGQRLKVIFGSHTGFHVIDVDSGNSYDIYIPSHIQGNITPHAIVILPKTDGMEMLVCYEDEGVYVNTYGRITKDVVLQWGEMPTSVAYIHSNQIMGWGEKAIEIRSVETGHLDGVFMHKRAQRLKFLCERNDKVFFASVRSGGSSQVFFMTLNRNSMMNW", "conditions": "kinase TNIK; for remaining activity at 1 µM: read-out: TNIK (% of control at 1 µM)"}, "panel of 442 kinases [7]": {"biological_target": "T7, panel of 442 kinases (Homo sapiens, UniProt Q8TD19)", "T7 construct": "purchased Ambit Biosciences (scanMAXX KINOMEscan)", "T7 sequence (Q8TD19 1-979)": "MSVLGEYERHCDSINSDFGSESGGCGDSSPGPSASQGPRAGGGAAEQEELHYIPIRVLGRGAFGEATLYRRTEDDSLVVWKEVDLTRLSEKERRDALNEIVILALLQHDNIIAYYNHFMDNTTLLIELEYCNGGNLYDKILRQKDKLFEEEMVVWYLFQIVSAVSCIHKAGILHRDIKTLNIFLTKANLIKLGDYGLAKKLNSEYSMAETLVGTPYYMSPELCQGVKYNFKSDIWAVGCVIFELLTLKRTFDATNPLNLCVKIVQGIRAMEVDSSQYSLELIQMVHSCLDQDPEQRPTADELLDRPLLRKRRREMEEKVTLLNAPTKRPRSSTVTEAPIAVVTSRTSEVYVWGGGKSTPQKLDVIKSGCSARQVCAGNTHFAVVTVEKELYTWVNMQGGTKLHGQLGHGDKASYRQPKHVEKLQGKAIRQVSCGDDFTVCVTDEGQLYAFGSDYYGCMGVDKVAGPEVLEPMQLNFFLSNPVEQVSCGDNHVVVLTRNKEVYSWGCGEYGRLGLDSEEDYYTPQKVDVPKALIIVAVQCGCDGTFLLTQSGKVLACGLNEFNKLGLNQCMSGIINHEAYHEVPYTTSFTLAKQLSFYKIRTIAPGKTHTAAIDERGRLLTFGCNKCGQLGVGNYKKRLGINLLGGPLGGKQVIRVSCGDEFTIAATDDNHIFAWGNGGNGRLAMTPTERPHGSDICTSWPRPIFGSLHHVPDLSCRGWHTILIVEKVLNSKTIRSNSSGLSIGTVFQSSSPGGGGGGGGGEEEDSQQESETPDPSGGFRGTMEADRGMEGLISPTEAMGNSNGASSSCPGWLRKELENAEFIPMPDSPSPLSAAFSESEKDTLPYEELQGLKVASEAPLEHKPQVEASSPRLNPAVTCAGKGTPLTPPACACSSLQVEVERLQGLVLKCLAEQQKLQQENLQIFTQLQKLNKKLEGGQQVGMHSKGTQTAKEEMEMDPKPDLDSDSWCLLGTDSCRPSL", "conditions": "kinase NEK9; for remaining activity at 1 µM: read-out: % of control at 1 µM"}, "[8]": {"conditions": "10 µM, read-out: % of control at 10 µM"}}, "data": [{"molecule": "Nc1cc(C(F)(F)F)c(-c2cc(N3CCOCC3)nc(N3CCOCC3)n2)cn1", "note": "[Buparlisib]", "values": [{"measurement": "remaining activity at 1 µM", "setting": "panel of 442 kinases [1]", "value": 68, "unit": "%"}, {"measurement": "remaining activity at 10 µM", "setting": "panel of 442 kinases [1]; [8]", "value": 83, "unit": "%"}, {"measurement": "remaining activity at 1 µM", "setting": "panel of 442 kinases [2]", "value": 91, "unit": "%"}, {"measurement": "remaining activity at 10 µM", "setting": "panel of 442 kinases [2]; [8]", "value": 94, "unit": "%"}, {"measurement": "remaining activity at 1 µM", "setting": "panel of 442 kinases [3]", "value": 99, "unit": "%"}, {"measurement": "remaining activity at 10 µM", "setting": "panel of 442 kinases [3]; 10 µM, read-out: TBK1 (% of control at 10 µM)", "value": 100, "unit": "%"}, {"measurement": "remaining activity at 1 µM", "setting": "panel of 442 kinases [4]", "value": 86, "unit": "%"}, {"measurement": "remaining activity at 10 µM", "setting": "panel of 442 kinases [4]; [8]", "value": 100, "unit": "%"}, {"measurement": "remaining activity at 1 µM", "setting": "panel of 442 kinases [5]", "value": 100, "unit": "%"}, {"measurement": "remaining activity at 10 µM", "setting": "panel of 442 kinases [5]; [8]", "value": 100, "unit": "%"}, {"measurement": "remaining activity at 1 µM", "setting": "panel of 442 kinases [6]", "value": 100, "unit": "%"}, {"measurement": "remaining activity at 10 µM", "setting": "panel of 442 kinases [6]; 10 µM, read-out: TNIK (% of control at 10 µM)", "value": 100, "unit": "%"}, {"measurement": "remaining activity at 1 µM", "setting": "panel of 442 kinases [7]", "value": 94, "unit": "%"}, {"measurement": "remaining activity at 10 µM", "setting": "panel of 442 kinases [7]; [8]", "value": 100, "unit": "%"}]}, {"molecule": "Cn1c(=O)n(-c2ccc(C(C)(C)C#N)cc2)c2c3cc(-c4cnc5ccccc5c4)ccc3ncc21", "note": "[Dactolisib, 2-methyl-2-[4-(3-methyl-2-oxo-8-quinolin-3-yl-2,3-dihydroimidazo[4,5-c]quinolin-1-yl)-phenyl] propionitrile]", "values": [{"measurement": "remaining activity at 1 µM", "setting": "panel of 442 kinases [2]", "value": 100, "unit": "%"}, {"measurement": "remaining activity at 1 µM", "setting": "panel of 442 kinases [3]", "value": 93, "unit": "%"}, {"measurement": "remaining activity at 1 µM", "setting": "panel of 442 kinases [4]", "value": 100, "unit": "%"}, {"measurement": "remaining activity at 1 µM", "setting": "panel of 442 kinases [5]", "value": 89, "unit": "%"}, {"measurement": "remaining activity at 1 µM", "setting": "panel of 442 kinases [7]", "value": 96, "unit": "%"}]}, {"molecule": "COc1ncc(-c2ccc3nccc(-c4ccnnc4)c3c2)cc1NS(=O)(=O)c1ccc(F)cc1F", "note": "[Omipalisib]", "values": [{"measurement": "remaining activity at 1 µM", "setting": "panel of 442 kinases [1]", "value": 57, "unit": "%"}, {"measurement": "remaining activity at 1 µM", "setting": "panel of 442 kinases [2]", "value": 100, "unit": "%"}, {"measurement": "remaining activity at 1 µM", "setting": "panel of 442 kinases [3]", "value": 100, "unit": "%"}, {"measurement": "remaining activity at 1 µM", "setting": "panel of 442 kinases [4]", "value": 84, "unit": "%"}, {"measurement": "remaining activity at 1 µM", "setting": "panel of 442 kinases [5]", "value": 100, "unit": "%"}, {"measurement": "remaining activity at 1 µM", "setting": "panel of 442 kinases [6]", "value": 100, "unit": "%"}, {"measurement": "remaining activity at 1 µM", "setting": "panel of 442 kinases [7]", "value": 100, "unit": "%"}]}, {"molecule": "FC(F)c1nc2ccccc2n1-c1nc(N2CCOCC2)nc(N2CCOCC2)n1", "note": "[ZSTK474, 2-(difluoromethyl)-1-[4,6-di(4-morpholinyl)-1,3,5-triazin-2-yl]-1H-benzimidazole]", "values": [{"measurement": "remaining activity at 1 µM", "setting": "panel of 442 kinases [1]", "value": 100, "unit": "%"}, {"measurement": "remaining activity at 1 µM", "setting": "panel of 442 kinases [2]", "value": 100, "unit": "%"}, {"measurement": "remaining activity at 1 µM", "setting": "panel of 442 kinases [3]", "value": 100, "unit": "%"}, {"measurement": "remaining activity at 1 µM", "setting": "panel of 442 kinases [4]", "value": 100, "unit": "%"}, {"measurement": "remaining activity at 1 µM", "setting": "panel of 442 kinases [5]", "value": 100, "unit": "%"}, {"measurement": "remaining activity at 1 µM", "setting": "panel of 442 kinases [6]", "value": 100, "unit": "%"}, {"measurement": "remaining activity at 1 µM", "setting": "panel of 442 kinases [7]", "value": 84, "unit": "%"}]}]}
